Source: patent US12054498B2, “Heteroaromatic macrocyclic ether chemotherapeutic agents” (Nuvalent, Inc., priority 2020, dated 2024)

Key:
Assay type in all cases: cell-based
[1] = molecular target: T1, Ba/F3 cells EML4-ALK L1196M/G1202R (variant 1) (Homo sapiens, UniProt Q9UM73, G1202R/L1196M); assay: Ba/F3 cell proliferation assay, EML4-ALK L1196M/G1202R (variant 1); conditions: 72 hours, CellTiter-Glo
T1 construct: echinoderm microtubule-associated protein-like 4 (EML4) gene and the ALK tyrosine kinase domain; host or cells: Ba/F3 (RIKEN), retroviral pMSCV-puro; the other entry of the earlier key: EML4 (Q9HC35, Echinoderm microtubule-associated protein-like 4)
T1 sequence (Q9UM73 with tags, fused parts or gaps L1196M/G1202R): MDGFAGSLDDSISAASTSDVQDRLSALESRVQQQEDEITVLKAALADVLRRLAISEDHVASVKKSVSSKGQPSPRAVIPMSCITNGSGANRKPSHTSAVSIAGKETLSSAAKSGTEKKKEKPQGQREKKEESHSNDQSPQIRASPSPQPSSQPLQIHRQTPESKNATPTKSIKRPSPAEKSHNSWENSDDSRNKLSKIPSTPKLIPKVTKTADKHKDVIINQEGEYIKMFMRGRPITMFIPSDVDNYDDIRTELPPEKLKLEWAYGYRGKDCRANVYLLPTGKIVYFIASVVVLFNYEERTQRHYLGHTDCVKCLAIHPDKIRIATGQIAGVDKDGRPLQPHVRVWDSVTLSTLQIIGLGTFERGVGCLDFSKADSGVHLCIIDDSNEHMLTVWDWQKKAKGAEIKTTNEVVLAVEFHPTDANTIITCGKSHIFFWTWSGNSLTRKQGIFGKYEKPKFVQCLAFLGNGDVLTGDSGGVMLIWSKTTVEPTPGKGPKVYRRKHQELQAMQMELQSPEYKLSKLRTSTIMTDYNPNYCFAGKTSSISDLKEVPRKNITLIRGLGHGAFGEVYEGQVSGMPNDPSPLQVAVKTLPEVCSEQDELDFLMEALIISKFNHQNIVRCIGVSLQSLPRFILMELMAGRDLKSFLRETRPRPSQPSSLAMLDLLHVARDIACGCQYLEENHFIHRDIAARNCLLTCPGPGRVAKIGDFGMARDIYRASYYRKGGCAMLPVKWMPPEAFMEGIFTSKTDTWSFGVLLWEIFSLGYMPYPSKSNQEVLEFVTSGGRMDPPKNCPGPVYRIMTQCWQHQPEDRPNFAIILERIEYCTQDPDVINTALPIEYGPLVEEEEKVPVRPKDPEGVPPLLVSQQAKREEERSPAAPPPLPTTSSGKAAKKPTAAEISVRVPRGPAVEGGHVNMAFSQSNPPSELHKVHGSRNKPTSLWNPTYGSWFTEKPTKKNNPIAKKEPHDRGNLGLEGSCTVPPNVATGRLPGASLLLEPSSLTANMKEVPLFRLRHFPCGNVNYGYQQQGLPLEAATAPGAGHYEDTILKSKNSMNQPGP
From the text: (§1) Genes encoding CD74-ROS1 wild-type (wt), CD74-ROS1 G2032R, CD74-ROS1 S1986F, CD74-ROS1 L2026M, CD74-ROS1 D2033N, EML4-ALK wt (variant 1), EML4-ALK G1202R (variant 1), EML4-ALK L1196M/G1202R (variant 1), EML4-ALK G1202R/G1269A (variant 1), EML4-ALK G1202R/L1198F (variant 1), and TPM3-TRKA were synthesized at GeneRay, cloned into the retroviral construct pMSCV-puro (Biovector), and packaged into retroviral particles. The virus was used to infect Ba/F3 cells (RIKEN) at multiplicity of infection=1 for 1 day. Infected cells were rescued in media (RPMI-1640 with 10% fetal bovine serum and 1% streptomycin and penicillin) supplemented with mouse IL-3 (10 ng/mL) for 2 days, and stable cell lines were selected by IL-3 withdrawal and puromycin (0.8 μg/mL) for 7 days. Monoclones were selected by single-cell dilution in IL-3-free medium containing puromycin (0.8 μg/mL). Transformation of desired genes was confirmed by Sanger sequencing and western blot using the following antibodies: ROS1 (CST #3287), ALK (CST #3633), and pan-TRK (Abcam #76291).
(§2) Cell Proliferation Assay Stable cells were plated at 1,000 cells/well (40 μL) in a 384-well plate for 1 day.
(§3) Test compounds (40 nL) were then added in a 3-fold dilution series using the TECAN EVO200 liquid handler and incubated for 72 hours. Plates were equilibrated at room temperature for 15 minutes followed by addition of 40 μL CellTiter-Glo reagent (Promega).
(§4) Luminescence was measured on a plate reader. Half-maximal inhibitory concentration (IC50) was calculated from percent inhibition and inhibitor concentration using four-parameter logistic regression. […] (nd=not determined).

[2] = tested on: TPM3-NTRK1-wt IC50 / primary target IC50 (e.g. CD74-ROS1-wt); assay: TRKA selectivity in Ba/F3 cells (TRKA potency divided by primary target potency); conditions: for TPM3-NTRK1-wt/CD74-ROS1-G2032R selectivity ratio: TRKA potency / CD74-ROS1-G2032R potency; for TPM3-NTRK1-wt/EML4-ALK-L1196M-G1202R selectivity ratio: TRKA potency / EML4-ALK-L1196M-G1202R potency; for TPM3-NTRK1-wt/EML4-ALK-wt selectivity ratio: TRKA potency / EML4-ALK-wt potency; for TPM3-NTRK1-wt/CD74-ROS1-wt selectivity ratio: TRKA potency / CD74-ROS1-wt potency
Description: TRKA selectivity was calculated by dividing a compound's TRKA potency by its primary target potency (e.g. TPM3-NTRK1-wt IC50/CD74-ROS1-wt IC50). Compound selectivity can be interpreted by binning ratio values: bin A for very high selectivity, ratio >30-fold; bin B for high selectivity, ratio >10-fold; bin C for moderate selectivity, ratio ≥1; and bin D for low selectivity, ratio <1. […] (nd=not determined).

[3] = molecular target: T2, Ba/F3 cells EML4-ALK wt (variant 1) (Homo sapiens, UniProt Q9UM73); assay: Ba/F3 cell proliferation assay, EML4-ALK wt (variant 1); conditions: 72 hours, CellTiter-Glo
T2 construct: echinoderm microtubule-associated protein-like 4 (EML4) gene and the ALK tyrosine kinase domain; host or cells: Ba/F3 (RIKEN), retroviral pMSCV-puro; the other entry of the earlier key: EML4 (Q9HC35, Echinoderm microtubule-associated protein-like 4)
T2 sequence (Q9UM73 with tags, fused parts or gaps): as the sequence (Q9UM73 with tags, fused parts or gaps L1196M/G1202R) above, with M635L, R641G counted along it
From the text: as §1, §2, §3, §4

Ba/F3 cells TPM3-TRKA = molecular target: T3, Ba/F3 cells TPM3-TRKA (Homo sapiens, UniProt P04629); assay: Ba/F3 cell proliferation assay, TPM3-TRKA; conditions: 72 hours, CellTiter-Glo, read-out: TPM3-NTRK1-wt IC50
T3 construct: host or cells: Ba/F3 (RIKEN), retroviral pMSCV-puro; the other entry of the earlier key: TPM3 (P06753, Tropomyosin alpha-3 chain)
T3 sequence (P04629 510-796 limits assumed): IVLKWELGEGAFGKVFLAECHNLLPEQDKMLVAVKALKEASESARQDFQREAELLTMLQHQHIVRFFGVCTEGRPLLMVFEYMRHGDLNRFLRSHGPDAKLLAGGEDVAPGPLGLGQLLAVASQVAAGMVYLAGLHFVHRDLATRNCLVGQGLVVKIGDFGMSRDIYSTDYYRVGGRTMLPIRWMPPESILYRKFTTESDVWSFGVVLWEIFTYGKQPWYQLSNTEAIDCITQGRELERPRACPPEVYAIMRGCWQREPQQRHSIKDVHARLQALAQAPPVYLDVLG
From the text: as §1, §2, §3, §4

[4] = molecular target: T4, Ba/F3 cells CD74-ROS1 G2032R (Homo sapiens, UniProt P08922, G2032R); assay: Ba/F3 cell proliferation assay, CD74-ROS1 G2032R; conditions: 72 hours, CellTiter-Glo
T4 construct: fusion of the C-terminus of ROS1 with the N-terminus of various partner proteins; host or cells: Ba/F3 (RIKEN), retroviral pMSCV-puro; the other entry of the earlier key: CD74 (P04233, HLA class II histocompatibility antigen gamma chain)
T4 sequence (P08922 1883-2347 G2032R limits assumed): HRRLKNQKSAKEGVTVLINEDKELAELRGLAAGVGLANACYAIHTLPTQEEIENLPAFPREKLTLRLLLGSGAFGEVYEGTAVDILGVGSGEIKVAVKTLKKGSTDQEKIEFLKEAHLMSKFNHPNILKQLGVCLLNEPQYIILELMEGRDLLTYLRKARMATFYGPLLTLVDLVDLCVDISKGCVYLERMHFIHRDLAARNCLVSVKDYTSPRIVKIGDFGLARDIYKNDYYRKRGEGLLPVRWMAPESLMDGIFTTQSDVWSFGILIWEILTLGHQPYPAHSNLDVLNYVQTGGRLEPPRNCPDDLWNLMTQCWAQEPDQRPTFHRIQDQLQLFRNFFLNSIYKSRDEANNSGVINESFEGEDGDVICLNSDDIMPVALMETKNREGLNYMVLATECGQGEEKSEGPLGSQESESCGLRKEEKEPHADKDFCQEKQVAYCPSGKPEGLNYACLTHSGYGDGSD
Description: (§5) The virus was used to infect Ba/F3 cells (RIKEN) at multiplicity of infection=1 for 1 day. Infected cells were rescued in media (RPMI-1640 with 10% fetal bovine serum and 1% streptomycin and penicillin) supplemented with mouse IL-3 (10 ng/mL) for 2 days, and stable cell lines were selected by IL-3 withdrawal and puromycin (0.8 μg/mL) for 7 days. Monoclones were selected by single-cell dilution in IL-3-free medium containing puromycin (0.8 μg/mL).
as §2, §3, §4

[5] = molecular target: T5, Ba/F3 cells CD74-ROS1 wild-type (wt) (Homo sapiens, UniProt P08922); assay: Ba/F3 cell proliferation assay, CD74-ROS1 wild-type; conditions: 72 hours, CellTiter-Glo
T5 construct: fusion of the C-terminus of ROS1 with the N-terminus of various partner proteins; host or cells: Ba/F3 (RIKEN), retroviral pMSCV-puro; the other entry of the earlier key: CD74 (P04233, HLA class II histocompatibility antigen gamma chain)
T5 sequence (P08922 1883-2347 limits assumed): as the sequence (P08922 1883-2347 G2032R limits assumed) above, with R150G counted along it
Description: as §5, §2, §3, §4

Row | IC50 [1] [nM] | IC50 [3] [nM] | IC50 (Ba/F3 cells TPM3-TRKA) [nM] | IC50 [4] [nM] | IC50 [5] [nM] | SMILES | TPM3-NTRK1-wt/CD74-ROS1-G2032R selectivity ratio [2] | TPM3-NTRK1-wt/EML4-ALK-L1196M-G1202R selectivity ratio [2] | TPM3-NTRK1-wt/EML4-ALK-wt selectivity ratio [2] | TPM3-NTRK1-wt/CD74-ROS1-wt selectivity ratio [2]
1 | 0.1 to 50 | 0.1 to 50 | 50 to 500 | 0.1 to 50 |  | CCn1ncc2c1-c1cnc(N)c(c1)O[C@H](C)c1cc(F)ccc1-c1ncn(C)c1C2 [Example 6, (19R)-3-ethyl-16-fluoro-9,19-dimethyl-20-oxa-3,4,9,11,23-pentaazapentacyclo[19.3.1.0^2,^6.0^8,^12.0^13,^18]pentacosa-1(24),2(6),4,8(12),10,13,15,17,21(25),22-decaen-22-amine] | A (bin A for very high selectivity, ratio >30-fold) | C (bin C for moderate selectivity, ratio ≥1) | A (bin A for very high selectivity, ratio >30-fold) | 
2 | 50 to 500 |  | > 500 | 0.1 to 50 |  | CCn1ncc2c1-c1cnc(N)c(c1)O[C@H](C)c1cc(F)ccc1-c1c(ncn1C)C2 [Example 11, (19R)-3-ethyl-16-fluoro-11,19-dimethyl-20-oxa-3,4,9,11,23-pentaazapentacyclo[19.3.1.0^2,^6.0^8,^12.0^13,^18]pentacosa-1(24),2(6),4,8(12),9,13,15,17,21(25),22-decaen-22-amine] | A (bin A for very high selectivity, ratio >30-fold) | B (bin B for high selectivity, ratio >10-fold) |  | 
3 | 50 to 500 |  | 50 to 500 | 0.1 to 50 |  | CCc1onc2c1-c1cnc(N)c(c1)O[C@H](C)c1cc(F)ccc1-c1nn(C)nc1C2 [Example 31, (19R)-3ethyl-16-fluoro-10,19-dimethyl-4,20-dioxa-5,9,10,11,23-pentaazapentacyclo[19.3.1.0^2,^6.0^8,^12.0^13,^18]pentacosa-1(24),2,5,8,11,13,15,17,21(25),22-decaen-22-amine] | A (bin A for very high selectivity, ratio >30-fold) | C (bin C for moderate selectivity, ratio ≥1) |  | 
4 | 50 to 500 |  | > 500 | 0.1 to 50 |  | C[C@H]1Oc2cc(cnc2N)-c2c(C#N)nn(C)c2Cc2ncsc2-c2ccc(F)cc21 [Example 57, (19R)-22-amino-16-fluoro-5,19-dimethyl-20-oxa-11-thia-4,5,9,23-tetraazapentacyclo[19.3.1.0^2,^6.0^8,^12.0^13,^18]pentacosa-1(24),2(6),3,8(12),9,13,15,17,21(25),22-decaene-3-carbonitrile] | A (bin A for very high selectivity, ratio >30-fold) | C (bin C for moderate selectivity, ratio ≥1) |  | 
5 | 50 to 500 |  | > 500 | 0.1 to 50 |  | Cc1nc2c(s1)-c1ccc(F)cc1[C@@H](C)Oc1cc(cnc1N)-c1c(C#N)nn(C)c1C2 [Example 68, (19R)-22-amino-16-fluoro-5,10,19-trimethyl-20-oxa-11-thia-4,5,9,23-tetraazapentacyclo[19.3.1.0^2,^6.0^8,^12.0^13,^18]pentacosa-1(24),2(6),3,8(12),9,13,15,17,21(25),22-decaene-3-carbonitrile] | A (bin A for very high selectivity, ratio >30-fold) | C (bin C for moderate selectivity, ratio ≥1) |  | 

Continued, molecule first:

Row | SMILES | IC50 [1] [nM] | IC50 [3] [nM] | IC50 (Ba/F3 cells TPM3-TRKA) [nM] | IC50 [4] [nM] | IC50 [5] [nM] | TPM3-NTRK1-wt/CD74-ROS1-G2032R selectivity ratio [2] | TPM3-NTRK1-wt/EML4-ALK-L1196M-G1202R selectivity ratio [2] | TPM3-NTRK1-wt/EML4-ALK-wt selectivity ratio [2] | TPM3-NTRK1-wt/CD74-ROS1-wt selectivity ratio [2]
6 | CCn1ncc2c1-c1cnc(N)c(c1)OCc1cc(F)ccc1-c1ccnn1C2 [Example 17, 3-ethyl-16-fluoro-20-oxa-3,4,8,9,23-pentaazapentacyclo[19.3.1.0^2,^6.0^8,^12.0^13,^18]pentacosa-1(24),2(6),4,9,11,13,15,17,21(25),22-decaen-22-amine] | > 500 | 50 to 500 | > 500 | 50 to 500 | 0.1 to 50 | A (bin A for very high selectivity, ratio >30-fold) | C (bin C for moderate selectivity, ratio ≥1) | B (bin B for high selectivity, ratio >10-fold) | A (bin A for very high selectivity, ratio >30-fold)
7 | CCn1ncc2c1-c1cnc(N)c(c1)O[C@H](C)c1cc(F)ccc1-c1c(Cl)cnn1C2 [Example 27, (19R)-11-chloro-3-ethyl-16-fluoro-19-methyl-20-oxa-3,4,8,9,23-pentaazapentacyclo[19.3,1.0^2,^6.0^8,^12.0^13,^18]pentacosa-1(24),2(6),4,9,11,13,15,17,21(25),22-decaen-22-amine] | 50 to 500 | 0.1 to 50 | > 500 | 0.1 to 50 |  | A (bin A for very high selectivity, ratio >30-fold) | C (bin C for moderate selectivity, ratio ≥1) | B (bin B for high selectivity, ratio >10-fold) | 
8 | CCn1nc(OC)c2c1-c1cnc(N)c(c1)O[C@H](C)c1cc(F)ccc1-c1cc(C)nn1C2 [Example 32, (19R)-3-ethyl-16-fluoro-5-methoxy-10,19-dimethyl-20-oxa-3,4,8,9,23-pentaazapentacyclo[19.3.1.0^2,^6.0^8,^12.0^13,^18]pentacosa-1(24),2(6),4,9,11,13,15,1 7,21(25),22-decaen-22-amine] | 50 to 500 | 0.1 to 50 | 50 to 500 | 0.1 to 50 | 0.1 to 50 | A (bin A for very high selectivity, ratio >30-fold) | C (bin C for moderate selectivity, ratio ≥1) | B (bin B for high selectivity, ratio >10-fold) | A (bin A for very high selectivity, ratio >30-fold)
9 | CCn1nc(Cl)c2c1-c1cnc(N)c(c1)O[C@H](C)c1cc(F)ccc1-c1ncnn1C2 [Example 43, (19R)-5-chloro-3-ethyl-16-fluoro-19-methyl-20-oxa-3,4,8,9,11,23-hexaazapentacyclo[19.3.1.0^2,^6.0^8,^12.0^13,^18]pentacosa-1(24),2,(6),4,9,11,13,15,17,21(25),22-decaen-22-amine] | 50 to 500 | 50 to 500 | > 500 | 0.1 to 50 | 0.1 to 50 | A (bin A for very high selectivity, ratio >30-fold) | C (bin C for moderate selectivity, ratio ≥1) | B (bin B for high selectivity, ratio >10-fold) | A (bin A for very high selectivity, ratio >30-fold)
10 | Cc1nn(CC2CC2)c2c1Cc1nccnc1-c1ccc(F)cc1[C@@H](C)Oc1cc-2cnc1N [Example 77, (20R)-3-(cyclopropylmethyl)-17-fluoro-5,20-dimethyl-21-oxa-3,4,9,12,24-pentaazapentacyclo[20.3.1.0^2,^6.0^8,^13.0^14,^19]hexacosa-1(25),2(6),4,8(13),9,11,14,16,18,22(26),23-undecaen-23-amine] | 0.1 to 50 | 0.1 to 50 | > 500 | 0.1 to 50 |  | A (bin A for very high selectivity, ratio >30-fold) | A (bin A for very high selectivity, ratio >30-fold) | A (bin A for very high selectivity, ratio >30-fold) | 
